Tests used:
[1] = molecular target: T1, ABL1(M351T)-phosphorylated (Homo sapiens, UniProt P00519, M351T); assay: KINOMEscan; format: binding; settings: 1 uM
T1 construct: purchased Ambit KINOMEscan (DiscoverX)
Procedure: (§1) First, we used Ambit's KINOMEscan™ technology to identify those kinases that are inhibited for substrate binding by the compounds, all assayed at 1 μM. Second, we used Invitrogen's SelectScreen® Biochemical Kinase Profiling Service to determine the in vitro IC50s for the compounds against specific kinases.

[2] = molecular target: T2, ASK1 (Homo sapiens, UniProt Q99683); assay: KINOMEscan; format: binding; settings: ASK1, 1 uM
T2 construct: purchased Ambit KINOMEscan (DiscoverX)
Procedure: as §1

[3] = molecular target: T3, AXL (Homo sapiens, UniProt P30530); assay: KINOMEscan; format: binding; settings: 1 uM
T3 construct: purchased Ambit KINOMEscan (DiscoverX)
Procedure: as §1

[4] = molecular target: T4, BMPR2 (Homo sapiens, UniProt Q13873); assay: KINOMEscan; format: binding; settings: BMPR2, 1 uM
T4 construct: purchased Ambit KINOMEscan (DiscoverX)
Procedure: as §1

[5] = molecular target: T5, BRAF (Homo sapiens, UniProt P15056); assay: KINOMEscan; format: binding; settings: 1 uM
T5 construct: purchased Ambit KINOMEscan (DiscoverX)
Procedure: as §1

[6] = molecular target: T6, CAMK2A (Homo sapiens, UniProt Q9UQM7); assay: KINOMEscan; format: binding; settings: 1 uM
T6 construct: purchased Ambit KINOMEscan (DiscoverX)
Procedure: as §1

[7] = molecular target: T7, CSNK1D (Homo sapiens, UniProt P48730); assay: KINOMEscan; format: binding; settings: 1 uM
T7 construct: purchased Ambit KINOMEscan (DiscoverX)
Procedure: as §1

[8] = molecular target: T8, DAPK3 (Homo sapiens, UniProt O43293); assay: KINOMEscan; format: binding; settings: DAPK3, 1 uM
T8 construct: purchased Ambit KINOMEscan (DiscoverX)
Procedure: as §1

[9] = molecular target: T9, EPHB1 (Homo sapiens, UniProt P54762); assay: KINOMEscan; format: binding; settings: EPHB1, 1 uM
T9 construct: purchased Ambit KINOMEscan (DiscoverX)
Procedure: as §1

[10] = molecular target: T10, EPHB6 (Homo sapiens, UniProt O15197); assay: KINOMEscan; format: binding; settings: EPHB6, 1 uM
T10 construct: purchased Ambit KINOMEscan (DiscoverX)
Procedure: as §1

[11] = molecular target: T11, ERK8 (Homo sapiens, UniProt Q8TD08); assay: KINOMEscan; format: binding; settings: ERK8, 1 uM
T11 construct: purchased Ambit KINOMEscan (DiscoverX)
Procedure: as §1

[12] = molecular target: T12, FGFR3(G697C) (Homo sapiens, UniProt P22607, G697C); assay: KINOMEscan; format: binding; settings: 1 uM
T12 construct: purchased Ambit KINOMEscan (DiscoverX)
Procedure: as §1

[13] = molecular target: T13, HPK1 (Homo sapiens, UniProt Q92918); assay: KINOMEscan; format: binding; settings: HPK1, 1 uM
T13 construct: purchased Ambit KINOMEscan (DiscoverX)
Procedure: as §1

[14] = molecular target: T14, ICK (Homo sapiens, UniProt Q9UPZ9); assay: KINOMEscan; format: binding; settings: 1 uM
T14 construct: purchased Ambit KINOMEscan (DiscoverX)
Procedure: as §1

[15] = molecular target: T15, LTK (Homo sapiens, UniProt P29376); assay: KINOMEscan; format: binding; settings: 1 uM
T15 construct: purchased Ambit KINOMEscan (DiscoverX)
Procedure: as §1

[16] = molecular target: T16, MEK4 (Homo sapiens, UniProt P45985); assay: KINOMEscan; format: binding; settings: MEK4, 1 uM
T16 construct: purchased Ambit KINOMEscan (DiscoverX)
Procedure: as §1

[17] = molecular target: T17, MLK2 (Homo sapiens, UniProt Q02779); assay: KINOMEscan; format: binding; settings: MLK2, 1 uM
T17 construct: purchased Ambit KINOMEscan (DiscoverX)
Procedure: as §1

[18] = molecular target: T18, MST2 (Homo sapiens, UniProt Q13188); assay: KINOMEscan; format: binding; settings: MST2, 1 uM
T18 construct: purchased Ambit KINOMEscan (DiscoverX)
Procedure: as §1

[19] = molecular target: T19, NEK6 (Homo sapiens, UniProt Q9HC98); assay: KINOMEscan; format: binding; settings: NEK6, 1 uM
T19 construct: purchased Ambit KINOMEscan (DiscoverX)
Procedure: as §1

[20] = molecular target: T20, NLK (Homo sapiens, UniProt Q9UBE8); assay: KINOMEscan; format: binding; settings: 1 uM
T20 construct: purchased Ambit KINOMEscan (DiscoverX)
Procedure: as §1

[21] = molecular target: T21, PCTK1 (Homo sapiens, UniProt Q00536); assay: KINOMEscan; format: binding; settings: PCTK1, 1 uM
T21 construct: purchased Ambit KINOMEscan (DiscoverX)
Procedure: as §1

[22] = molecular target: T22, PHKG2 (Homo sapiens, UniProt P15735); assay: KINOMEscan; format: binding; settings: PHKG2, 1 uM
T22 construct: purchased Ambit KINOMEscan (DiscoverX)
Procedure: as §1

[23] = molecular target: T23, PIK3CA(C420R) (Homo sapiens, UniProt P42336, C420R); assay: KINOMEscan; format: binding; settings: 1 uM
T23 construct: purchased Ambit KINOMEscan (DiscoverX)
Procedure: as §1

[24] = molecular target: T24, PIK4CB (Homo sapiens, UniProt Q9UBF8); assay: KINOMEscan; format: binding; settings: 1 uM
T24 construct: purchased Ambit KINOMEscan (DiscoverX)
Procedure: as §1

[25] = molecular target: T25, RIPK2 (Homo sapiens, UniProt O43353); assay: KINOMEscan; format: binding; settings: RIPK2, 1 uM
T25 construct: purchased Ambit KINOMEscan (DiscoverX)
Procedure: as §1

[26] = molecular target: T26, SBK1 (Homo sapiens, UniProt Q52WX2); assay: KINOMEscan; format: binding; settings: SBK1, 1 uM
T26 construct: purchased Ambit KINOMEscan (DiscoverX)
Procedure: as §1

[27] = molecular target: T27, SIK2 (Homo sapiens, UniProt Q9H0K1); assay: KINOMEscan; format: binding; settings: SIK2, 1 uM
T27 construct: purchased Ambit KINOMEscan (DiscoverX)
Procedure: as §1

[28] = molecular target: T28, SRPK3 (Homo sapiens, UniProt Q9UPE1); assay: KINOMEscan; format: binding; settings: SRPK3, 1 uM
T28 construct: purchased Ambit KINOMEscan (DiscoverX)
Procedure: as §1

[29] = molecular target: T29, STK36 (Homo sapiens, UniProt Q9NRP7); assay: KINOMEscan; format: binding; settings: STK36, 1 uM
T29 construct: purchased Ambit KINOMEscan (DiscoverX)
Procedure: as §1

[30] = molecular target: T30, TLK1 (Homo sapiens, UniProt Q9UKI8); assay: KINOMEscan; format: binding; settings: TLK1, 1 uM
T30 construct: purchased Ambit KINOMEscan (DiscoverX)
Procedure: as §1

[31] = molecular target: T31, TSSK1B (Homo sapiens, UniProt Q9BXA7); assay: KINOMEscan; format: binding; settings: 1 uM
T31 construct: purchased Ambit KINOMEscan (DiscoverX)
Procedure: as §1

[32] = molecular target: T32, ULK1 (Homo sapiens, UniProt O75385); assay: KINOMEscan; format: binding; settings: ULK1, 1 uM
T32 construct: purchased Ambit KINOMEscan (DiscoverX)
Procedure: as §1

[33] = molecular target: T33, MAPKAPK2 (Homo sapiens, UniProt P49137); assay: KINOMEscan; format: binding; settings: MAPKAPK2, 1 uM
T33 construct: purchased Ambit KINOMEscan (DiscoverX)

[34] = system: HKe-3 (K-RAS^−/+); assay: Cell viability (Syto60); format: cell-based; settings: 72 hours; for cooperation with / sensitization to AZ-628 (cell viability): K-RAS wild-type cells (HKe-3), 1 µM AZ-628
Procedure: All colon cancer cell lines were maintained in DMEM supplemented with penicillin (100 units/mL), streptomycin (100 μg/mL), and 10% fetal bovine serum (FBS). The rectal cancer cell line (Car1) was maintained in DMEM/F12 supplemented with penicillin (100 units/mL)/streptomycin (50 μg/mL), and 5% FBS. […] The target sequences for knockdowns can be found in Table S2. In drug treatment experiments, cells were plated for 24 hours prior to exposure to drug. AZ-628 was obtained from AstraZeneca. CI-1040 was obtained from Pfizer. R406 was synthesized in the Gray laboratory. BAY61-3606 and IKK VII were purchased from EMD Biosciences. BAY derivatives were synthesized for this study.
Cell cycle analysis was performed via FACS-based propidium iodide quantification, using standard methods. To measure cell viability, cells were grown in 96-well plates in the presence or absence of drug for 72 hours, fixed with 4% paraformaldehyde, and then stained with Syto60 (Invitrogen). Plates were imaged and quantified using the LiCor Odyssey system (LiCor).

T6 sequence (Q9UQM7 whole entry): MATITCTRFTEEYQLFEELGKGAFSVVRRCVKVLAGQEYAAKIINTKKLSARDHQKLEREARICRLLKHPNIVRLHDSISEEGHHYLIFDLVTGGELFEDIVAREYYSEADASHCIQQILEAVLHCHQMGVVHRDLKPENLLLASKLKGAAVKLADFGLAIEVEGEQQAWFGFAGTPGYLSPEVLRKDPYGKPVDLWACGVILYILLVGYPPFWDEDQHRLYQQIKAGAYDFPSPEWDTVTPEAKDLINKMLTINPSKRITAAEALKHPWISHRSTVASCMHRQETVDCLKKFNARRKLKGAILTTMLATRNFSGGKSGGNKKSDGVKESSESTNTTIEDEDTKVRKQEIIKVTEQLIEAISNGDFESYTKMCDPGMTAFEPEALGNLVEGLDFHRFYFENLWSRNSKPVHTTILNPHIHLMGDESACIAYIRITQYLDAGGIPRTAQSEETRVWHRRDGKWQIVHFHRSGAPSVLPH
T18 sequence (Q13188 whole entry): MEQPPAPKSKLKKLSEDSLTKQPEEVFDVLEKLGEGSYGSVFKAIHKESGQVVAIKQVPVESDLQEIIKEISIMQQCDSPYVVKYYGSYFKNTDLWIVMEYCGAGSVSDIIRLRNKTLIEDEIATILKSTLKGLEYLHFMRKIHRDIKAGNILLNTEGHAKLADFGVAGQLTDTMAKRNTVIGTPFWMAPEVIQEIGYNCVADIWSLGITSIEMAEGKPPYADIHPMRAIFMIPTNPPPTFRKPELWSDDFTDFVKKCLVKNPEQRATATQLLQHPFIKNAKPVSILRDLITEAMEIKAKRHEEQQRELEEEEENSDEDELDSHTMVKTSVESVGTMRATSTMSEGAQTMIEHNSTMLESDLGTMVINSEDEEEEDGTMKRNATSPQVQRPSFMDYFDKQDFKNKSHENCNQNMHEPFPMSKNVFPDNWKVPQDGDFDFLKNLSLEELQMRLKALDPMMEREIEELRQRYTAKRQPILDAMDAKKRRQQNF
T24 sequence (Q9UBF8 whole entry): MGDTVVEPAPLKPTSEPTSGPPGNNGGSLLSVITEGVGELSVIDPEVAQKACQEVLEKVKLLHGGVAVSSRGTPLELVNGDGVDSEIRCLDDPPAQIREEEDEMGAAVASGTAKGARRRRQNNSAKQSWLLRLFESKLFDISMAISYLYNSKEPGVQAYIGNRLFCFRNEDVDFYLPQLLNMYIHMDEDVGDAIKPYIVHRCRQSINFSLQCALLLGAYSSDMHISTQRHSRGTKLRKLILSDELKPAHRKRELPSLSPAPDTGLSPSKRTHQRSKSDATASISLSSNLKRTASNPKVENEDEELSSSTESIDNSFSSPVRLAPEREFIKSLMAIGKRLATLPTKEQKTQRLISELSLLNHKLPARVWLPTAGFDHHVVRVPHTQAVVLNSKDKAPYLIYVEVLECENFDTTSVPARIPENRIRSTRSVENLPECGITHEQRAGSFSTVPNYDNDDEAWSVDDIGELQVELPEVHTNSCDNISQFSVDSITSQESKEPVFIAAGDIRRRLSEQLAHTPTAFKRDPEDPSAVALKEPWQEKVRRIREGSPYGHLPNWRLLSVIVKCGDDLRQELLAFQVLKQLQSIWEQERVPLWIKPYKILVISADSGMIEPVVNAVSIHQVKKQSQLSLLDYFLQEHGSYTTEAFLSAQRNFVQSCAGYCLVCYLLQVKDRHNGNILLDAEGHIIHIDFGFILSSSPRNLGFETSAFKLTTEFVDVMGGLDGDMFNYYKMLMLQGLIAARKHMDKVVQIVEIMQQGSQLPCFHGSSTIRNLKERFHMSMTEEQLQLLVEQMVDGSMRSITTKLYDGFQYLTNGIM
T27 sequence (Q9H0K1 whole entry): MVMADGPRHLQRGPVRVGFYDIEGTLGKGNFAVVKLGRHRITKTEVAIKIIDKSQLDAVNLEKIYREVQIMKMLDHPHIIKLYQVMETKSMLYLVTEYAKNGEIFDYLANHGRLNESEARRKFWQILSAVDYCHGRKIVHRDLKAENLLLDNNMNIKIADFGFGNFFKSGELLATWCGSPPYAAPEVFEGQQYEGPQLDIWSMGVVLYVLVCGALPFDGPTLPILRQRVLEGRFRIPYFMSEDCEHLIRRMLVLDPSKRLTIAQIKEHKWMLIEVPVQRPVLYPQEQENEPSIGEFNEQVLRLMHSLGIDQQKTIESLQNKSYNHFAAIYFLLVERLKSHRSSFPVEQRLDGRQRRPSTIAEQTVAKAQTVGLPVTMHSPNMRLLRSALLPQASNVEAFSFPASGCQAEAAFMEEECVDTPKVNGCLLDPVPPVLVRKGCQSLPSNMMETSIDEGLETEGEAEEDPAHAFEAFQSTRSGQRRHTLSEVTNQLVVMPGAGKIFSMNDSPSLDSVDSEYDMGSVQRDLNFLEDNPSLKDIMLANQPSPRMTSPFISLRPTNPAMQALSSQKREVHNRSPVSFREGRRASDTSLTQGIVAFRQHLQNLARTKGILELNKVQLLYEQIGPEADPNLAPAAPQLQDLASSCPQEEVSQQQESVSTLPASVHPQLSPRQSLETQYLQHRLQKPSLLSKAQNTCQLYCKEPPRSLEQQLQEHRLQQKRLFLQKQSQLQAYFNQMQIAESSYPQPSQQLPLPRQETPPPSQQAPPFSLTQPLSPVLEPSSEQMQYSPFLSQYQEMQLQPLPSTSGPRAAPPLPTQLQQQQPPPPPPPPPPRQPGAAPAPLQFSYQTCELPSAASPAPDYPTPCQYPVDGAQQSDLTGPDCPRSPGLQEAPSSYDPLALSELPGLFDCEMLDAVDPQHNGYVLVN
T5 sequence (P15056 whole entry): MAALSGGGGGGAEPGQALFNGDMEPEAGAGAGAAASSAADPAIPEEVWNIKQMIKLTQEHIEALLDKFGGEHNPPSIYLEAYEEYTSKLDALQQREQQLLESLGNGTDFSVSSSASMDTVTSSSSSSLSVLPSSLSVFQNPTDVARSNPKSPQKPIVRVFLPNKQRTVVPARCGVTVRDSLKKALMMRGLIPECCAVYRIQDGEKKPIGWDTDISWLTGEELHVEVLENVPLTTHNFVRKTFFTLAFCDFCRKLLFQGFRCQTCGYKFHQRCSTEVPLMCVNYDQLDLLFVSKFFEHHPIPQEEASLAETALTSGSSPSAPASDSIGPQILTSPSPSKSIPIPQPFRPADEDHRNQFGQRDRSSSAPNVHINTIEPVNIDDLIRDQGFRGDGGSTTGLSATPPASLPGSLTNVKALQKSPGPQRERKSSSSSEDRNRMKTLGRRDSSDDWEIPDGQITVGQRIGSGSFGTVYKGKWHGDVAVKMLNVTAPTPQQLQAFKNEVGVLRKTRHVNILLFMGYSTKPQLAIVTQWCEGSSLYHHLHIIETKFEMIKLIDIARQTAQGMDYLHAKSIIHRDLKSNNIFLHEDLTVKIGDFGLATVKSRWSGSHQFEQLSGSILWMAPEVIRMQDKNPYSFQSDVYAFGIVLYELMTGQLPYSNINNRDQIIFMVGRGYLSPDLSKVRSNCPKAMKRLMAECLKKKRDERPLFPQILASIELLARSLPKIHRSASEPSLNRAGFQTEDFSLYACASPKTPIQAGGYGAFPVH
T10 sequence (O15197 32-1021): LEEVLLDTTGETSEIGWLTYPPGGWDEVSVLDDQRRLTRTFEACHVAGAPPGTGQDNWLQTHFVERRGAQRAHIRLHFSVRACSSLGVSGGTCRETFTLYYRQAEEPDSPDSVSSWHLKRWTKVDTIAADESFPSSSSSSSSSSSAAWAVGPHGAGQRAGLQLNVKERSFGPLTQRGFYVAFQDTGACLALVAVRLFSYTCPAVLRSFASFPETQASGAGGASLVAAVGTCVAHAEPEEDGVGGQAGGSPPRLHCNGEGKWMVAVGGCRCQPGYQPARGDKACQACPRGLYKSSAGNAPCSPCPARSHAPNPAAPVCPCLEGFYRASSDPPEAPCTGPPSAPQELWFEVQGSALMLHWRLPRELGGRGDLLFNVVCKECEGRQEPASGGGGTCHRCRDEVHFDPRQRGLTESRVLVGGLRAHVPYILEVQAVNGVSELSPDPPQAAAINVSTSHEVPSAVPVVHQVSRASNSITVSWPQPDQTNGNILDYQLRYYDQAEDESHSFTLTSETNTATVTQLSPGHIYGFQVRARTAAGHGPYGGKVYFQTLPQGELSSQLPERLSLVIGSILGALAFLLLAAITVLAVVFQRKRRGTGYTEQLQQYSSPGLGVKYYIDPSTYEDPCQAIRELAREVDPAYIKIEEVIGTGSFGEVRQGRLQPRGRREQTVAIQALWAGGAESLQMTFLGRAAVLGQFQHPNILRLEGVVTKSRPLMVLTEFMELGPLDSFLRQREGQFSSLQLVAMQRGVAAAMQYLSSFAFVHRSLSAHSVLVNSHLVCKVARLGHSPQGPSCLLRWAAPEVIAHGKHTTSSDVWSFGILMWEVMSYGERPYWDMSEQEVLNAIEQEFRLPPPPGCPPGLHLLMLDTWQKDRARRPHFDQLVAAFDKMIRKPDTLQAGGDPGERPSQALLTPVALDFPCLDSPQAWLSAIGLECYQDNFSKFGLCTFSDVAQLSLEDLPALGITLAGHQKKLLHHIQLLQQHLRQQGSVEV
T33 sequence (P49137 whole entry): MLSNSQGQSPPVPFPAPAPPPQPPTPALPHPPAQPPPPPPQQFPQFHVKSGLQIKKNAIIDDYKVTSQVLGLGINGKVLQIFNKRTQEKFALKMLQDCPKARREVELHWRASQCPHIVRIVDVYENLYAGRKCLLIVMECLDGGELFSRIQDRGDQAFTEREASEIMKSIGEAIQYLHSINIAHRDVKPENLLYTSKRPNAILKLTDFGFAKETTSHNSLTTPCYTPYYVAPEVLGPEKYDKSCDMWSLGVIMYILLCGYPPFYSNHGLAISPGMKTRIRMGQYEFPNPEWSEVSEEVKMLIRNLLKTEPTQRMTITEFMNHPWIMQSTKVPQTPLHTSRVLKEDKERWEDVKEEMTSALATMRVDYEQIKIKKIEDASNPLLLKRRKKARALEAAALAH

COc1ccc(-c2cc3nccn3c(Nc3ncccc3C(N)=O)n2)cc1OC.Cl.Cl [BAY61-3606, 2-[7-(3,4-dimethoxyphenyl)-imidazo [1,2-c]pyrimidin-5-ylamino] nicotinamide dihydrochloride, reference compound]
% binding compared to no inhibitor control [1]: 81% | % binding compared to no inhibitor control [2]: 100% | % binding compared to no inhibitor control [3]: 92% | % binding compared to no inhibitor control [4]: 46% | % binding compared to no inhibitor control [5]: 90% | % binding compared to no inhibitor control [6]: 64% | % binding compared to no inhibitor control [7]: 74% | % binding compared to no inhibitor control [8]: 71% | % binding compared to no inhibitor control [9]: 90% | % binding compared to no inhibitor control [10]: 17% | % binding compared to no inhibitor control [11]: 92% | % binding compared to no inhibitor control [12]: 83% | % binding compared to no inhibitor control [13]: 43% | % binding compared to no inhibitor control [14]: 23% | % binding compared to no inhibitor control [15]: 46% | % binding compared to no inhibitor control [16]: 45% | % binding compared to no inhibitor control [17]: 91% | % binding compared to no inhibitor control [18]: 97% | % binding compared to no inhibitor control [19]: 63% | % binding compared to no inhibitor control [20]: 88% | % binding compared to no inhibitor control [21]: 86% | % binding compared to no inhibitor control [22]: 26% | % binding compared to no inhibitor control [23]: 100% | % binding compared to no inhibitor control [24]: 24% | % binding compared to no inhibitor control [25]: 70% | % binding compared to no inhibitor control [26]: 96% | % binding compared to no inhibitor control [27]: 100% | % binding compared to no inhibitor control [28]: 74% | % binding compared to no inhibitor control [29]: 74% | % binding compared to no inhibitor control [30]: 89% | % binding compared to no inhibitor control [31]: 96% | % binding compared to no inhibitor control [32]: 97% | % binding compared to no inhibitor control [33]: 100% | sensitization to AZ-628 (cell viability) ([34]; HKe-3 cells with MAP4K2 knockdown, 1 µM + 1 µM AZ-628): no longer sensitizes | cooperation with / sensitization to AZ-628 (cell viability) [34]: became sensitive

COc1ccccc1Nc1nc(-c2ccc(OC)c(OC)c2)cc2nccn12 [BAY derivative 6]
% binding compared to no inhibitor control [1]: 92% | % binding compared to no inhibitor control [2]: 100% | % binding compared to no inhibitor control [3]: 89% | % binding compared to no inhibitor control [4]: 87% | % binding compared to no inhibitor control [5]: 100% | % binding compared to no inhibitor control [6]: 96% | % binding compared to no inhibitor control [7]: 100% | % binding compared to no inhibitor control [8]: 100% | % binding compared to no inhibitor control [9]: 100% | % binding compared to no inhibitor control [10]: 56% | % binding compared to no inhibitor control [11]: 98% | % binding compared to no inhibitor control [12]: 70% | % binding compared to no inhibitor control [13]: 100% | % binding compared to no inhibitor control [14]: 100% | % binding compared to no inhibitor control [15]: 30% | % binding compared to no inhibitor control [16]: 100% | % binding compared to no inhibitor control [17]: 100% | % binding compared to no inhibitor control [18]: 82% | % binding compared to no inhibitor control [19]: 100% | % binding compared to no inhibitor control [20]: 82% | % binding compared to no inhibitor control [21]: 100% | % binding compared to no inhibitor control [22]: 100% | % binding compared to no inhibitor control [23]: 100% | % binding compared to no inhibitor control [24]: 100% | % binding compared to no inhibitor control [25]: 100% | % binding compared to no inhibitor control [26]: 100% | % binding compared to no inhibitor control [27]: 64% | % binding compared to no inhibitor control [28]: 100% | % binding compared to no inhibitor control [29]: 100% | % binding compared to no inhibitor control [30]: 57% | % binding compared to no inhibitor control [31]: 100% | % binding compared to no inhibitor control [32]: 100% | % binding compared to no inhibitor control [33]: 93% | cooperation with / sensitization to AZ-628 (cell viability) [34]: lost its ability to cooperate with AZ-628

From article PMC3399817 (PLoS ONE, 2012)
